Experimental findings from ChEMBL document CHEMBL1158592, “Synthesis and biological evaluation of isoflavone fatty acid esters with potential weight loss and hypolipidemic activities” (Bioorg Med Chem, 2010) are described below.

The subject of data set [1] is Mus musculus. Kind of data set: Hypolipidemic activity in high fat diet-fed C57BL/6 mouse assessed as decrease in plasma total cholesterol level at 200 mg/kg, ig administered QD for 4 weeks. It counts as functional, organism-based. Set-up: dose 200 mg/kg.
Data set [2] deals with Mus musculus. Kind of data set: Hypolipidemic activity in high fat diet-fed C57BL/6 mouse assessed as increase in plasma HDL level at 200 mg/kg, ig administered QD for 4 weeks. The class given is functional, organism-based. More on the design: dose 200 mg/kg.
Data set [3] relates to Mus musculus. Kind of data set: Hypolipidemic activity in high fat diet-fed C57BL/6 mouse assessed as decrease in plasma triglyceride level at 200 mg/kg, ig administered QD for 4 weeks. It counts as functional, organism-based. Set-up: dose 200 mg/kg.
Data set [4] has as its system Mus musculus. As to the kind of experiment: Hypolipidemic activity in high fat diet-fed C57BL/6 mouse assessed as decrease in plasma LDL level at 200 mg/kg, ig administered QD for 4 weeks. It counts as functional, organism-based. More on the design: dose 200 mg/kg.
Data set [5] concerns Rattus norvegicus. Kind of data set: Antiobese activity in high fat diet-fed Sprague-Dawley rat assessed as plasma total cholesterol level at 10 mg/kg, ig administered QD for 30 days (reference value: 1.86+/-0.31 mmol/L). The class given is functional. To be noted: route intragastric.
Data set [6] deals with Rattus norvegicus. As to the kind of experiment: Antiobese activity in high fat diet-fed Sprague-Dawley rat assessed as plasma triglyceride level at 10 mg/kg, ig administered QD for 30 days (reference value: 1.25+/-0.23 mmol/L). It counts as functional. The note with it: route intragastric.
In data set [7] the test system is Rattus norvegicus. As to the kind of experiment: Antiobese activity in high fat diet-fed Sprague-Dawley rat assessed as body weight at 10 mg/kg, ig administered QD for 30 days (reference value: 355+/-36 g). The class given is functional. The note with it: route intragastric.
The subject of data set [8] is Rattus norvegicus. Kind of data set: Antiobese activity in high fat diet-fed Sprague-Dawley rat assessed as plasma free fatty acid level at 10 mg/kg, ig administered QD for 30 days (reference value: 785.6+/-175.8 umol/L). The note with it: route intragastric. The class given is functional.
The subject of data set [9] is Rattus norvegicus. Kind of data set: Antiobese activity in high fat diet-fed Sprague-Dawley rat assessed as body fat mass measured per 100 g of body weight at 10 mg/kg, ig administered QD for 30 days (reference value: 6.4+/-1.4 g/100 g). It counts as functional. The note with it: route intragastric.
Data set [10] relates to 3T3-L1. As to the kind of experiment: Increase in PPARgamma mRNA levels in mouse 3T3L1 cells at 100 umol/L by RT-PCR. The class given is functional, cell-based.
Data set [11] concerns 3T3-L1. Kind of data set: Decrease in triglyceride content in mouse 3T3L1 cells assessed as reduction of lipid droplets after 48 hrs by oil-red-O staining. The class given is functional, cell-based.
Data set [12] concerns Rattus norvegicus. Kind of data set: Antiobese activity in high fat diet-fed Sprague-Dawley rat assessed as plasma triglyceride level at 50 mg/kg, ig administered QD for 30 days (reference value: 1.25+/-0.23 mmol/L). The note with it: route intragastric. The class given is functional.
The test system of data set [13] is Rattus norvegicus. As to the kind of experiment: Antiobese activity in high fat diet-fed Sprague-Dawley rat assessed as body weight at 50 mg/kg, ig administered QD for 30 days (reference value: 355+/-36 g). It counts as functional. To be noted: route intragastric.
Data set [14] deals with Rattus norvegicus. As to the kind of experiment: Antiobese activity in high fat diet-fed Sprague-Dawley rat assessed as plasma total cholesterol level at 50 mg/kg, ig administered QD for 30 days (reference value: 1.86+/-0.31 mmol/L). The class given is functional. To be noted: route intragastric.
Data set [15] concerns Rattus norvegicus. Kind of data set: Antiobese activity in high fat diet-fed Sprague-Dawley rat assessed as body fat mass measured per 100 g of body weight at 50 mg/kg, ig administered QD for 30 days (reference value: 6.4+/-1.4 g/100 g). The class given is functional. The note with it: route intragastric.
Data set [16] deals with 3T3-L1. As to the kind of experiment: Inhibition of mouse 3T3L1 cells differentiation after 48 hrs by oil-red-O staining. The class given is functional, cell-based.
For data set [17], the system named is Rattus norvegicus. Kind of data set: Antiobese activity in high fat diet-fed Sprague-Dawley rat assessed as plasma free fatty acid level at 50 mg/kg, ig administered QD for 30 days (reference value: 785.6+/-175.8 umol/L). The note with it: route intragastric. It counts as functional.
The test system of data set [18] is Mus musculus. As to the kind of experiment: Hypolipidemic activity in high fat diet-fed C57BL/6 mouse assessed as decrease in plasma total cholesterol level at 50 mg/kg, ig administered QD for 4 weeks. Set-up: dose 50 mg/kg. The class given is functional, organism-based.
In data set [19] the test system is 3T3-L1. Kind of data set: Antiproliferative activity against mouse 3T3L1 cells after 48 hrs by MTT assay. It counts as functional, cell-based.
A short description of data set [20]: Acute toxicity in ig dosed KM mouse by Bliss method. It counts as organism-based. The note with it: in vivo, po.
The test system of data set [21] is 3T3-L1. As to the kind of experiment: Inhibition of mouse 3T3L1 cells differentiation assessed as morphological changes after 48 hrs by oil-red-O staining. The class given is functional, cell-based.
Data set [22] has as its system Mus musculus. As to the kind of experiment: Hypolipidemic activity in high fat diet-fed C57BL/6 mouse assessed as increase in plasma HDL level at 50 mg/kg, ig administered QD for 4 weeks. The class given is functional, organism-based. Set-up: dose 50 mg/kg.
Data set [23] concerns Mus musculus. Kind of data set: Hypolipidemic activity in high fat diet-fed C57BL/6 mouse assessed as decrease in plasma triglyceride level at 50 mg/kg, ig administered QD for 4 weeks. It counts as functional, organism-based. More on the design: dose 50 mg/kg.
Data set [24] relates to Mus musculus. As to the kind of experiment: Reduction in plasma insulin level in high fat diet-fed C57BL/6 mouse at 50 mg/kg, ig administered QD for 4 weeks. More on the design: dose 50 mg/kg. It counts as functional, organism-based.
The test system of data set [25] is Mus musculus. Kind of data set: Hypolipidemic activity in high fat diet-fed C57BL/6 mouse assessed as decrease in plasma LDL level at 50 mg/kg, ig administered QD for 4 weeks. The class given is functional, organism-based. Set-up: dose 50 mg/kg.

Molecules are shown by their SMILES. Calls of active or inactive are those of the source. No cut-off for these calls is given here.

For `O=C(O[C@H]1[C@H](OC(=O)c2cccnc2)[C@@H](OC(=O)c2cccnc2)[C@H](OC(=O)c2cccnc2)[C@@H](OC(=O)c2cccnc2)[C@H]1OC(=O)c1cccnc1)c1cccnc1`, the result in the data set with Mus musculus [1], in the data set with Mus musculus [2], in the data set with Mus musculus [3] and in the data set on Mus musculus [4] was Active.

For the compound `CC(C)CC(N(C)C)C1(c2ccc(Cl)cc2)CCC1` (stereo unspecified) [SIBUTRAMINE], the Activity in the data set with Rattus norvegicus [5] is 1.32 mmol/L; in the data set on Rattus norvegicus [6] it was 0.97 mmol/L; in the data set with Rattus norvegicus [7], 301 g; in the data set on Rattus norvegicus [8], 609.6 µmol/L; with Rattus norvegicus [9], 4.3 g.

Take `CCc1ccc(CCOc2ccc(CC3SC(=O)NC3=O)cc2)nc1` (stereo unspecified): in the data set with 3T3-L1 [10], the outcome was Active.

Regarding `COc1ccc(-c2coc3cc(O)ccc3c2=O)cc1`, the outcome in the data set on 3T3-L1 [10] was Active.

Consider `CCCCC/C=C\C/C=C\CCCCCCCC(=O)Oc1ccc2c(=O)c(-c3ccc(OC)cc3)coc2c1`, for which the result in the data set on 3T3-L1 [11] and in the data set with 3T3-L1 [10] was Active. The Activity in the data set with Rattus norvegicus [12] came out at 0.99 mmol/L; in the data set with Rattus norvegicus [13], 307 g; with Rattus norvegicus [14] it was 1.28 mmol/L; in the data set with Rattus norvegicus [15], 4.3 g/100 g body weight; with Rattus norvegicus [17], 603.8 µmol/L. The inhibition result in the data set on 3T3-L1 [16] was “Active”.

With `CCCCCCCCCCCCCCCC(=O)Oc1ccc2c(=O)c(-c3ccc(OC)cc3)coc2c1`, the outcome in the data set on 3T3-L1 [11] was Active. Moreover, in the data set on 3T3-L1 [10], the result was inactive. In addition, the inhibition entry in the data set on 3T3-L1 [16] was “Active”.

Regarding `CCCCC/C=C\C/C=C\CCCCCCCC(=O)Oc1ccc(-c2coc3cc(OC)ccc3c2=O)cc1`, the Activity came out at 1.03 mmol/L in the data set on Rattus norvegicus [12]; 318 g in the data set with Rattus norvegicus [13]; 1.67 mmol/L in the data set on Rattus norvegicus [14]; 5.1 g/100 g body weight in the data set on Rattus norvegicus [15]; 658.8 µmol/L in the data set with Rattus norvegicus [17].

As to `CCCCCCCC/C=C\CCCCCCCC(=O)Oc1ccc(-c2coc3cc(OC)ccc3c2=O)cc1`, the Activity is 1.01 mmol/L with Rattus norvegicus [12]; 328 g in the data set with Rattus norvegicus [13]; 1.65 mmol/L in the data set on Rattus norvegicus [14]; 5.6 g/100 g body weight in the data set on Rattus norvegicus [15]; 696.3 µmol/L in the data set with Rattus norvegicus [17].

As for `CCCCCCCCCCCCCCCCCC(=O)Oc1ccc(-c2coc3cc(OC)ccc3c2=O)cc1`, the Activity was 1.35 mmol/L with Rattus norvegicus [12]; 352 g in the data set with Rattus norvegicus [13]; 1.71 mmol/L in the data set with Rattus norvegicus [14]; 6 g/100 g body weight in the data set on Rattus norvegicus [15]; 738.1 µmol/L in the data set with Rattus norvegicus [17].

In the case of `CCCCCCCC/C=C\CCCCCCCC(=O)Oc1ccc2c(=O)c(-c3ccc(OC)cc3)coc2c1` [OLEOYL FORMONONETIN], the outcome with Mus musculus [18], with 3T3-L1 [11], in the data set with 3T3-L1 [10], with 3T3-L1 [19], with Mus musculus [22] and in the data set with Mus musculus [23] was Active. Besides, the outcome in the data set on Mus musculus [24] and in the data set with Mus musculus [25] was Active. The Activity with Rattus norvegicus [12] worked out at 0.91 mmol/L; with Rattus norvegicus [13], 309 g; with Rattus norvegicus [14], 1.31 mmol/L; in the data set with Rattus norvegicus [15] it was 5 g/100 g body weight; in the data set on Rattus norvegicus [17], 606.7 µmol/L. The same compound showed an LD50 in data set [20] of 2160 mg/kg. Also, the inhibition entry in the data set on 3T3-L1 [21] and in the data set on 3T3-L1 [16] was “Active” throughout.

With `CCCCCCCCCCCCCCCCCC(=O)Oc1ccc2c(=O)c(-c3ccc(OC)cc3)coc2c1`, the outcome with 3T3-L1 [11] was Active. For the same compound, the Activity was found to be 1.19 mmol/L in the data set on Rattus norvegicus [12]; 320 g in the data set on Rattus norvegicus [13]; 1.57 mmol/L in the data set with Rattus norvegicus [14]; 5.4 g/100 g body weight in the data set with Rattus norvegicus [15]; 730.2 µmol/L in the data set on Rattus norvegicus [17]. The result in the data set on 3T3-L1 [10] was inactive. In the data set with 3T3-L1 [16], the inhibition entry is “Active”.
